According to US10391109B2, “Use of zoledronic acid to prepare drug treating fatty liver disease” (NANJING UNIVERSITY, priority 2015, dated 2019):
Where “and” joins values, the source holds several entries; their conditions need not be identical. Identical values can stand only once.

Legend:
liver triglyceride [1] = assay: Measurement of TG in liver tissue, C57BL/6J mice (foodborne non-alcoholic fatty liver); assay type: in vivo; details: 50 μg/kg tail vein injection once every two days
Experimental: (§1) About 50 mg of the right lobe of liver in mice was taken, with an accurate weight recorded. It was washed with PBS, placed in 1 ml of a lysis solution and mechanically homogenized. The lysed tissue homogenate was divided into two portions. One portion, 500 μl, was placed in a metal bath at 70° C., heated for 10 min, and centrifuged for 5 min at 2,000×rpm. 1-10 μl was taken for a tissue TG assay with the kit. Another 500 μl was used for a protein concentration assay using the BCA method.
(§2) According to the forgoing general materials and methods, the mice in the HFD group were first administered with zoledronic acid and placebo. In this example, zoledronic acid was administered mainly by tail vein injection. The primary site of action of the drug was liver. The injection was performed once every two days. The dosage was 50 μg/kg of zoledronic acid. Tissue triglyceride level assay and H&E staining were performed for mice after administration.
(§3) The HFD group is high fat diet group, the RC group is regular chow group, PBS is placebo, ZOL is zoledronic acid, and the dosage is 50 μg/kg.

blood AST = assay: Assay for blood AST level, ob/ob mice; assay type: in vivo
Experimental: (§4) After the mice were anaesthetized, blood was collected from the eye socket veins, left at room temperature for 30 min, and centrifuged upon serum precipitation. 10 μl serum was taken for ALT and AST assays with the kit.
(§5) Similar to Example 1, according to the forgoing general materials and methods, ob/ob mice were first administered with zoledronic acid preparation and placebo at various dosages. The blood ALT and AST levels in ob/ob mice after treatment were assayed.

hepatic lipid content = assay: Quantitative analysis of hepatic lipid content in ob/ob mice (Computer Tomography); assay type: in vivo
[2] = Body weight, liver weight and epididymal fat pad weight in ob/ob mice after administration; assay type: in vivo
Experimental: In order to further verify the lipid reducing effect of zoledronic acid, the experiments of the present invention were carried out in ob/ob mice of hereditary obese mice models with severe non-alcoholic fatty liver mainly characterized by lipid accumulation. A total of thirty 10-week-old ob/ob mice were selected, randomly assigned to 3 groups of 10 mice, and housed with regular chow (containing 4% fat). Ob/ob mice were mutant mice mainly manifested as obesity and related metabolic syndrome. […] Ob/ob mice were administered with zoledronic acid and control placebo. The resulting changes of physiological indicators in mice were observed and different body weights and physiological indicators were recorded.

[3] = system: hepatic lipid accumulation; assay: Oil Red staining of liver cryosections, ob/ob mice; assay type: in vivo; details: various dosages
Experimental: An appropriate amount of the right lobe of liver was taken at the same site for laboratory mice in each group, fixed in paraformaldehyde for 2 h, dehyrdated with 30% sucrose for 8-12 h, and embedded in OCT. It was stored in a refrigerator at −70° C. It was sectioned using a Cryostat Microtome at a section thickness of 15 μm.
The cryosections were slightly dried at room temperature, slightly washed with 60% ethanol, stained in an Oil Red 0 staining solution (60% Oil Red 0 stock plus 40% distilled water) for 10-15 min, differentiated in 60% ethanol, washed, subjected to nuclear staining with hematoxylin for 1 min, washed for 1 min, suck dried, and mounted with glycerin.
(§6) Further, the liver structure was shown by H&E staining and the lipid accumulation was shown by Oil Red staining. Injection of zoledronic acid can effectively reduce hepatic lipid accumulation in hereditary obese mice. […] In addition, the use of the zoledronic acid preparation can effectively reduce the body weight of hereditary obese mice, effectively reduce accumulation of epididymal fat pads in mice, and modulate the triglyceride content in body, achieving an effective lipid reducing, lipid lowering, and slimming effect.

[4] = system: hepatic lipid accumulation; assay: H&E staining of liver paraffin sections, ob/ob mice; assay type: in vivo; details: various dosages
Experimental: (§7) An appropriate amount of the right lobe of liver tissue was taken, fixed in 4% paraformaldehyde for 24-48 h, dehyrdated with graded ethanols, cleared with xylene, infiltrated with wax, embedded in paraffin, and sectioned at a thickness of 5 μm.
(§8) The sections were de-waxed in xylene for 10 min and 5 min respectively, and then reconstituted in graded ethanol solutions. The sections were subjected to hematoxylin staining for 4 min, and then slightly washed with distilled water. The sections were blued in 0.25% NH3.H2O for 30 s, and then washed with distilled water. The sections were dehydrated with graded ethanols to 95% ethanol, stained for 2-3 s in 0.5% eosin, dehydrated in 100% ethanol, and soaked in xylene for 2 min. Finally, the sections were mounted in Rhamsan gum.
as §6

[5] = system: aspartate transaminase (AST); assay: Assay for blood AST level, C57BL/6J mice; assay type: in vivo; details: 50 μg/kg
Experimental: as §4
(§9) Similar to Example 1, according to the forgoing general materials and methods, the mice in the HFD group were first administered with zoledronic acid and placebo. The blood alanine transaminase (ALT) and aspartate transaminase (AST) levels in mice after administration were assayed.
as §3

[6] = system: hepatic macrovesicular steatosis; assay: H&E staining of liver paraffin sections, high fat diet mice; assay type: in vivo, C57BL/6J mice; details: 50 μg/kg injection
Experimental: as §7, §8, §2

blood ALT = assay: Assay for blood ALT level, ob/ob mice; assay type: in vivo
Experimental: as §4, §5

[7] = system: blood alanine transaminase (ALT); assay: Assay for blood ALT level, C57BL/6J mice; assay type: in vivo; details: 50 μg/kg
Experimental: as §4, §9, §3

liver triglyceride [8] = assay: Measurement of TG in liver tissue, ob/ob mice (hereditary non-alcoholic fatty liver); assay type: in vivo
Experimental: as §1

[9] = Body weight, liver weight and epididymal fat pad weight in C57BL/6J mice on regular chow or high fat diet after administration; assay type: in vivo; details: 50 μg/kg
From the text: The present inventors first used model mice with foodborne non-alcoholic fatty liver, that is, high-fat diet (containing 60% fat) was used for inducing C57BL/6J mice for 12 weeks to generate fatty liver. It was found from the experimental assay that feeding of high fat diet could result in hepatic fat accumulation and degeneration in mice.
A total of forty 8-week-old C57BL/6J mice were selected, and randomly assigned to 4 groups of 10 mice. The mice were weighted respectively, fed with regular chow (containing 4% fat) and high fat diet (containing 60% fat), and housed for 12 weeks. The mice were weekly weighted and recorded, and curves were plotted. After 12 weeks, the mice with fatty liver fed with regular chow and high fat diet were administered with zoledronic acid and placebo so as to explore the function for relieving fat accumulation. Meanwhile, the resulting changes of physiological indicators for mice were observed, and different body weights and physiological indicators were recorded.
The RC group is regular chow group, the HFD group is high fat diet group, PBS is placebo, ZOL is zoledronic acid, and the dosage is 50 μg/kg.

## O=P(O)(O)C(O)(Cn1ccnc1)P(=O)(O)O [ZOL, 1-hydroxy-2-(imidazol-1-yl)-ethylidene-1,1-bisphosphonic acid]
Liver triglyceride [1]; HFD group
  Average decline of liver triglyceride vs PBS: 44.9%
  Liver triglyceride: 38.18 ± 10.27 mg/g
Liver triglyceride [1]; RC group
  Average decline of liver triglyceride vs PBS: 12.5%
  Liver triglyceride: 14.33 ± 6.39 mg/g
Blood AST; ZOL50 (50 μg/kg)
  AST IU/L: 240.25 ± 70.54 IU/L
  Average decline of AST vs PBS: 30.4%
Blood AST; ZOL200 (200 μg/kg)
  AST IU/L: 269.75 ± 71.53 IU/L
  Average decline of AST vs PBS: 21.9%
Hepatic lipid content; ZOL50 (50 μg/kg)
  Average decline of lipid content vs PBS: 20.4%
  Lipid content: 592.00 ± 201.08 mg/mL
Hepatic lipid content; ZOL200 (200 μg/kg)
  Average decline of lipid content vs PBS: 34%
  Lipid content: 490.22 ± 211.95 mg/mL
[2]; ZOL50 (50 μg/kg)
  Average body weight/g: 50.56 ± 2.82 g
  Average decline of average body weight vs PBS: 7%
  Average decline of average epididymal fat pad weight vs PBS: 39%
  Average decline of average liver weight vs PBS: 17%
  Average epididymal fat pad weight/g: 3.628 ± 0.27 g
  Average liver weight/g: 3.47 ± 0.58 g
[2]; ZOL200 (200 μg/kg)
  Average body weight/g: 45.94 ± 5.16 g
  Average decline of average body weight vs PBS: 15%
  Average decline of average epididymal fat pad weight vs PBS: 4%
  Average decline of average liver weight vs PBS: 46%
  Average epididymal fat pad weight/g: 3.79 ± 0.30 g
  Average liver weight/g: 2.26 ± 0.21 g
[3]
  Liver histology, Oil Red staining (FIG. 8): significant decrease in hepatic lipid accumulation
[4]
  Liver histology, H&E staining (FIG. 7): significant decrease in hepatic lipid accumulation
[5]; HFD group
  AST IU/L: 76 ± 31.42 IU/L
  Average decline of AST vs PBS: 44.7% and 45.2%
[5]; RC group
  AST IU/L: 52.4 ± 21.20 IU/L
  Average decline of AST vs PBS: no significant changes
[6]
  Liver histology, H&E staining (FIG. 3): significant remission in hepatic macrovesicular steatosis
Blood ALT; ZOL50 (50 μg/kg)
  ALT IU/L: 281.6 ± 142.59 IU/L
  Average decline of ALT vs PBS: 42.5%
Blood ALT; ZOL200 (200 μg/kg)
  ALT IU/L: 277.4 ± 188.65 IU/L
  Average decline of ALT vs PBS: 43.4%
[7]; HFD group
  ALT IU/L: 62.8 ± 14.08 IU/L
  Average decline of ALT vs PBS: 45.2% and 44.7%
[7]; RC group
  ALT IU/L: 39.2 ± 12.09 IU/L
  Average decline of ALT vs PBS: no significant changes
Liver triglyceride [8]; ZOL50 (50 μg/kg)
  Average decline of liver triglyceride vs PBS: No significant change
  Liver triglyceride: 140.88 ± 44.29 mg/g
Liver triglyceride [8]; ZOL200 (200 μg/kg)
  Average decline of liver triglyceride vs PBS: 34%
  Liver triglyceride: 98.49 ± 40.08 mg/g
[9]; HFD group (high fat diet)
  Average body weight/g: 36.73 ± 3.74 g
  Average decline of average body weight vs PBS: 16%
  Average decline of average epididymal fat pad weight vs PBS: 30%
  Average decline of average liver weight vs PBS: 29%
  Average epididymal fat pad weight/g: 2.33 ± 0.62 g
  Average liver weight/g: 1.41 ± 0.17 g
[9]; RC group (regular chow)
  Average body weight/g: 26.72 ± 1.69 g
  Average decline of average body weight vs PBS: 13%
  Average decline of average epididymal fat pad weight vs PBS: 39%
  Average decline of average liver weight vs PBS: 17%
  Average epididymal fat pad weight/g: 0.46 ± 0.11 g
  Average liver weight/g: 1.28 ± 0.08 g
